Legend:
[1] = system: T. brucei brucei Lister 427 bloodstream forms; assay: Efficacy against T. brucei bloodstream forms, resazurin-based assay; format: cell-based, Trypanosoma brucei brucei; details: 72 h; for inhibition at 10 µM: Trypanosoma brucei, read-out: % inhibition T. brucei at 10 µM ± SD; for % inhibition T. brucei at 10 µM ± SD: 10 µM compound, T. brucei brucei Lister 427 bloodstream form
[2] = molecular target: Leishmania major PTR1 (LmPTR1); details: read-out: Ki LmPTR1; cited from earlier work
TbDHFR = TbDHFR (Trypanosoma brucei brucei, UniProt Q27783); assay: biochemical
TbDHFR, sequence (Q27783 whole entry): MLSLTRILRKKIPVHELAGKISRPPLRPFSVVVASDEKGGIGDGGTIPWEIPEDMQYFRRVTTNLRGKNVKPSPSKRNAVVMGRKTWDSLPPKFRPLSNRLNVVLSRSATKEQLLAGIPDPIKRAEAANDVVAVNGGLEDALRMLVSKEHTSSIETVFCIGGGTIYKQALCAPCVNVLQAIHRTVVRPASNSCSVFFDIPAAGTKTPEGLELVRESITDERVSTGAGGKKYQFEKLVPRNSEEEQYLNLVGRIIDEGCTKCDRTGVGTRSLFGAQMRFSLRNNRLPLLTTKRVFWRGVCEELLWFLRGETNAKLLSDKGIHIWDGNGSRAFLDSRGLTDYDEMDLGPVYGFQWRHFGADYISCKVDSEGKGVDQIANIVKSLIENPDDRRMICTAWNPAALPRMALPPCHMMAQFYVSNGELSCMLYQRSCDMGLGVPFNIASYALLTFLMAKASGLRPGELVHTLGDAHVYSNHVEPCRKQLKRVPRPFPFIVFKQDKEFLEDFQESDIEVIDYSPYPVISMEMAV

LmDHFR = LmDHFR (Leishmania major, UniProt P07382); assay: biochemical
LmDHFR, sequence (P07382 whole entry): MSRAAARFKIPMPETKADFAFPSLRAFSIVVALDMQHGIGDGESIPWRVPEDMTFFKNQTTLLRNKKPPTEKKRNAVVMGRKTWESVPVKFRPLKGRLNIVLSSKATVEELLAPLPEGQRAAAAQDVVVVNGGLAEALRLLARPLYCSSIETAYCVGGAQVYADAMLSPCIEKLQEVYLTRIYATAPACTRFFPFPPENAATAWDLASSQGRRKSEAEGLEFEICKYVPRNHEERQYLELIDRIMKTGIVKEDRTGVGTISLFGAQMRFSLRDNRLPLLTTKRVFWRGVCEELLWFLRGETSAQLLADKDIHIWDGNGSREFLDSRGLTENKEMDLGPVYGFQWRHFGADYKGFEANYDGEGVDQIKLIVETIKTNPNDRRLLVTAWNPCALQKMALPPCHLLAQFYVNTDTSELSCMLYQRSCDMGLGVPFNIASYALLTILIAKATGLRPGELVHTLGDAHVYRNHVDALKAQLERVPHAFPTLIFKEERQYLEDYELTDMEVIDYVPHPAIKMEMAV

[3] = Cytotoxicity on THP-1-derived macrophages, colorimetric MTT assay; format: cell-based; details: human
hDHFR = molecular target: T1, hDHFR (Homo sapiens, UniProt P00374); assay: biochemical; details: for hDHFR IC50: off-target
T1 sequence (P00374 1-187): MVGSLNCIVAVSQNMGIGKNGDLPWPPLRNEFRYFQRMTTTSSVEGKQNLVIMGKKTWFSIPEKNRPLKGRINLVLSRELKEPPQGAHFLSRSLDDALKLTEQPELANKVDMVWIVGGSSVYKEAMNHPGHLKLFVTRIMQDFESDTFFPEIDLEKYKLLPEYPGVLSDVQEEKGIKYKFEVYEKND

LmPTR1 = molecular target: T2, LmPTR1 (Leishmania major, UniProt Q01782); assay: biochemical
T2 sequence (Q01782 1-288): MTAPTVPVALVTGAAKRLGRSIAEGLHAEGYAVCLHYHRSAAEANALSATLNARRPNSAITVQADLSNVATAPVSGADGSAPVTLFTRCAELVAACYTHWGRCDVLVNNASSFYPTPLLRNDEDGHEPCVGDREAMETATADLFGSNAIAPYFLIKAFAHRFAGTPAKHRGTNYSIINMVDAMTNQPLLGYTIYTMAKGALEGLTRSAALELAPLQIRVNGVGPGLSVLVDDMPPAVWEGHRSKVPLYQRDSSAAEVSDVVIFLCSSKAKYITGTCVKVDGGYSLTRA

L. major DHFR (LmDHFR) = details: read-out: Ki LmDHFR; cited from earlier work
human DHFR (hDHFR) = details: read-out: Ki hDHFR; cited from earlier work
hTS = hTS (Homo sapiens, UniProt P04818); assay: biochemical
hTS, sequence (P04818 whole entry): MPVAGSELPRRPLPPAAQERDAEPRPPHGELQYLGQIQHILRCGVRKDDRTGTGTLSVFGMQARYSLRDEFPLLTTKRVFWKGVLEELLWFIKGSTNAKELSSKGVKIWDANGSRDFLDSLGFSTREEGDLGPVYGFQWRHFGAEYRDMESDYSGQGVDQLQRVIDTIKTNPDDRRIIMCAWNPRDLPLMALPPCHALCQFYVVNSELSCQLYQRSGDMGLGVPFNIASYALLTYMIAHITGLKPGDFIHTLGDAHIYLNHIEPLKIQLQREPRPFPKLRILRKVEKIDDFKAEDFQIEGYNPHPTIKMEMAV

**Q.** For Nc1nc(N)c2nc(CNc3ccc(C(=O)NCCc4ccccc4)cc3)cnc2n1 [Compound 4e], which inhibition at 10 µM [1] is on record?
**A.** The inhibition at 10 µM was 40%.

**Q.** Which Ki [2] does the source give for COC(=O)C1CCN(C(=O)c2ccc(N(C)Cc3cnc4nc(N)nc(N)c4n3)cc2)CC1 [Compound 1b, methyl-1-(4-(((2,4-diaminopteridin-6-yl)methyl)(methyl)amino)benzoyl)piperidine-4-carboxylate, reference compound] here?
**A.** The Ki was 40 nM.

**Q.** And the IC50 (TbDHFR)?
**A.** The IC50 was 300 nM.

**Q.** And the IC50 (LmDHFR)?
**A.** The IC50 was 300 nM.

**Q.** Which CC50 [3] does the source give for COc1ccc(Oc2ccc(CN(Cc3ccccc3)Cc3cnc4nc(N)nc(N)c4n3)cc2)cc1 [Compound 5e] here?
**A.** Its CC50 is 12500 to 25000 nM.

**Q.** With COc1ccc(Oc2ccc(CN(C)Cc3cnc4nc(N)nc(N)c4n3)cc2)cc1 [Compound 5f] as the compound, how does the CC50 [3] read?
**A.** The CC50 was 12500 to 25000 nM.

**Q.** For COc1ccc(CNC(=O)c2ccc(CNCc3cnc4nc(N)nc(N)c4n3)cc2)cc1 [Compound 4f], which “% inhibition T. brucei at 10 µM ± SD” value [1] is on record?
**A.** The value was “inactive”.

**Q.** What does the source list for Nc1nc(N)c2nc(C(=O)NCc3cccc(C(F)(F)F)c3)cnc2n1 [Compound 3e]?
**A.** TbDHFR IC50 (TbDHFR): do not show inhibitory activity; LmDHFR IC50 (LmDHFR): do not show inhibitory activity

**Q.** Which IC50 (TbDHFR) does the source give for Nc1nc(N)c2nc(CNc3cccc4ccccc34)cnc2n1 [Compound 3c] here?
**A.** Its IC50 is 500 nM.

**Q.** And the IC50 (hDHFR)?
**A.** Its IC50 is 4000 nM.

**Q.** What does the source list for Nc1nc(N)c2nc(C(=O)NCc3ccccc3)cnc2n1 [Compound 3d]?
**A.** TbDHFR IC50 (TbDHFR): do not show inhibitory activity; LmDHFR IC50 (LmDHFR): do not show inhibitory activity

**Q.** Which IC50 (LmPTR1) does the source give for CN(Cc1cnc2nc(N)nc(N)c2n1)c1ccc(C(=O)N2CCCCC2)cc1 [Compound 4c] here?
**A.** Its IC50 is 100 nM.

**Q.** For CCOC(=O)C1CCN(C(=O)c2ccc(N(CC)Cc3cnc4nc(N)nc(N)c4n3)cc2)CC1 [Compound 5c], which IC50 (LmDHFR) is on record?
**A.** Its IC50 is 200 nM.

**Q.** With COC(=O)C1CCN(C(=O)c2ccc(NCc3cnc4nc(N)nc(N)c4n3)cc2)CC1 [Compound 1c, methyl-1-(4-(((2,4-diaminopteridin-6-yl)methyl)amino)benzoyl)piperidine-4-carboxylate] as the compound, how does the Ki [2] read?
**A.** Its Ki is 100 nM.

**Q.** What about the Ki (L. major DHFR (LmDHFR)) of the same compound?
**A.** Its Ki is 4000 nM.

**Q.** What about the Ki (human DHFR (hDHFR)) of the same compound?
**A.** The Ki was 10000 nM.

**Q.** Which results are given for NC(=O)C1CCCN1C(=O)Cc1ccc(N(CCCO)Cc2cnc3nc(N)nc(N)c3n2)cc1 (centres unmarked) [Compound 5b]?
**A.** IC50 (hTS): 29000 nM; hDHFR IC50 (hDHFR): inactive

**Q.** With Nc1nc(N)c2nc(CNCc3ccc(Oc4ccccc4)cc3)cnc2n1 [Compound 4h] as the compound, how does the “% inhibition T. brucei at 10 µM ± SD” value [1] read?
**A.** The value was “inactive”.

**Q.** For COC(=O)C1CCN(C(=O)c2ccc(N(Cc3ccccc3)Cc3cnc4nc(N)nc(N)c4n3)cc2)CC1 [Compound 2c], which IC50 (TbDHFR) is on record?
**A.** The IC50 was ~1000 nM.

**Q.** What about the inhibition at 10 µM [1] of the same compound?
**A.** Its inhibition at 10 µM is 75%.

**Q.** With COc1ccc(Oc2ccc(CNCc3cnc4nc(N)nc(N)c4n3)cc2)cc1 [Compound 4i] as the compound, how does the “TbDHFR IC50” value (TbDHFR) read?
**A.** The value was “inactive”.

**Q.** And the “LmDHFR IC50” value (LmDHFR)?
**A.** The value was “inactive”.

**Q.** And the “hDHFR IC50” value (hDHFR)?
**A.** The value was “inactive”.

**Q.** Which IC50 (LmDHFR) does the source give for CCOC(=O)C1CCN(C(=O)c2ccc(N(C)Cc3cnc4nc(N)nc(N)c4n3)cc2)CC1 [Compound 4a] here?
**A.** Its IC50 is 100 nM.

**Q.** For CCN(Cc1cnc2nc(N)nc(N)c2n1)c1ccc(C(=O)c2ccccc2)cc1 [Compound 5d], which CC50 [3] is on record?
**A.** Its CC50 is 25000 to 50000 nM.

**Q.** With COc1cc(Oc2ccc(CNCc3cnc4nc(N)nc(N)c4n3)cc2)cc(OC)c1OC [Compound 4j] as the compound, how does the “% inhibition T. brucei at 10 µM ± SD” value [1] read?
**A.** Its value is “inactive”.

Reference: PMC9289884 (Journal of Medicinal Chemistry, 2022)
